Assay results reported in publication doi:10.1101/2025.03.31.646301v1, “Discovery of Tankyrase scaffolding inhibitor specifically targeting the ARC4 peptide binding domain” (biorxiv, 2025).

What was measured:
TNKS1 ARC2-3 = target: T1, TNKS1 ARC2-3 (Homo sapiens, UniProt O95271); assay: FRET displacement of YFP-REAGDGEE peptide from CFP-ARC; format: binding
T1 construct: gene TNKS; ankyrin repeat clusters 2-3, 6xHis-mCerulean (CFP) fusion, E. coli
T1 sequence (O95271 336-649 limits assumed): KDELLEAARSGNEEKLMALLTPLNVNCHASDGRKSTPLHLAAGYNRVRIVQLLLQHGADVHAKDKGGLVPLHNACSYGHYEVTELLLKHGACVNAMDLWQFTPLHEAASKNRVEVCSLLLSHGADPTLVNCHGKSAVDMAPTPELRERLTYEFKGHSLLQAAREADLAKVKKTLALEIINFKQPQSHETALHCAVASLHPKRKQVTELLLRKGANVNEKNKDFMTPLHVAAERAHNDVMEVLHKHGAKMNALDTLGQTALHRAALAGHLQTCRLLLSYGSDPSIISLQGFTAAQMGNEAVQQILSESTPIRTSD
Excerpt: FRET displacement of YFP-REAGDGEE peptide from CFP-ARC on TNKS1 ARC2-3

TNKS2 ARC1 = target: T2, TNKS2 ARC1 (Homo sapiens, UniProt Q9H2K2); assay: as above; format: binding
T2 construct: ankyrin repeat cluster 1 domain, 6xHis-mCerulean (CFP) fusion, E. coli
T2 sequence (Q9H2K2 21-174 limits assumed): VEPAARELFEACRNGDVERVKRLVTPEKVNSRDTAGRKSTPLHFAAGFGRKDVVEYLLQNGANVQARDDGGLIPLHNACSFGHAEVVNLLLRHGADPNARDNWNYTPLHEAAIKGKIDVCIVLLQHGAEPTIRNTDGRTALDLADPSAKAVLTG
Excerpt: FRET displacement of YFP-REAGDGEE peptide from CFP-ARC on TNKS2 ARC1

TNKS2 ARC5 = target: T3, TNKS2 ARC5 (Homo sapiens, UniProt Q9H2K2); assay: as above; format: binding
T3 construct: ankyrin repeat cluster 5 domain, 6xHis-mCerulean (CFP) fusion, E. coli
T3 sequence (Q9H2K2 646-800 limits assumed): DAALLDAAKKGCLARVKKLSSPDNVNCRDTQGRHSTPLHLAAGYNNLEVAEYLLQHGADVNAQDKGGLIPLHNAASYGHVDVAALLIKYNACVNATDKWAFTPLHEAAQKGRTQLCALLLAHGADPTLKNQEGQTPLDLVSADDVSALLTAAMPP
Excerpt: FRET displacement of YFP-REAGDGEE peptide from CFP-ARC on TNKS2 ARC5

TNKS2 ARC4 [1] = target: T4, TNKS2 ARC4 (Homo sapiens, UniProt Q9H2K2); assay: as above; format: binding
T4 construct: ankyrin repeat cluster 4 domain; FRET: 6xHis-mCerulean (CFP) fusion; DSF, NMR, crystal: MBP and His tag cleaved by TEV, residues 487-649 printed for crystal; E. coli BL21(DE3)
T4 sequence (Q9H2K2 487-649): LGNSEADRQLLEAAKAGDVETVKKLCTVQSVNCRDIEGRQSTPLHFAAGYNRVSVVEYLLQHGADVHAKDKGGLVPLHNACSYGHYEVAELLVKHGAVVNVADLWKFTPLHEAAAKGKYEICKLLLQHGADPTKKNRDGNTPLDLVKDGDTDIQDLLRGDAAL

TNKS1 ARC5 = target: T5, TNKS1 ARC5 (Homo sapiens, UniProt O95271); assay: as above; format: binding
T5 construct: gene TNKS; ankyrin repeat cluster 5 domain, 6xHis-mCerulean (CFP) fusion, E. coli
T5 sequence (O95271 806-966 limits assumed): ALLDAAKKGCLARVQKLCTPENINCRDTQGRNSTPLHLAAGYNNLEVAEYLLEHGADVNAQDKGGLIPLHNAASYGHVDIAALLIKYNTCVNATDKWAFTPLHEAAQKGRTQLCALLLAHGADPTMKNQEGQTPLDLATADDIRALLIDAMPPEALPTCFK
Excerpt: FRET displacement of YFP-REAGDGEE peptide from CFP-ARC on TNKS1 ARC5

TNKS1 ARC4 = target: T6, TNKS1 ARC4 (Homo sapiens, UniProt O95271); assay: as above; format: binding
T6 construct: gene TNKS; ankyrin repeat cluster 4 domain, 6xHis-mCerulean (CFP) fusion, E. coli
T6 sequence (O95271 649-806 limits assumed): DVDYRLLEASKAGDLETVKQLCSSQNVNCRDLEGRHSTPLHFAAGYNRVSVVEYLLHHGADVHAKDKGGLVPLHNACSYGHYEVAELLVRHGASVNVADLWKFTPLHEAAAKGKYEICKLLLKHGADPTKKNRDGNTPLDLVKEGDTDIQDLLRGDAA
Excerpt: FRET displacement of YFP-REAGDGEE peptide from CFP-ARC on TNKS1 ARC4

TNKS1 ARC1 = target: T7, TNKS1 ARC1 (Homo sapiens, UniProt O95271); assay: as above; format: binding
T7 construct: gene TNKS; ankyrin repeat cluster 1 domain, 6xHis-mCerulean (CFP) fusion, E. coli
T7 sequence (O95271 173-336 limits assumed): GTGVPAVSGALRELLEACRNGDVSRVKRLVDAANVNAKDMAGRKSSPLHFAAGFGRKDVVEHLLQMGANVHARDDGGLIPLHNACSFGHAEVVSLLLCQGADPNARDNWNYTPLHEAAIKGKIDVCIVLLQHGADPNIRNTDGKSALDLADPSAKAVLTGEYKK
Excerpt: FRET displacement of YFP-REAGDGEE peptide from CFP-ARC on TNKS1 ARC1

TNKS2 ARC2 = target: T8, TNKS2 ARC2 (Homo sapiens, UniProt Q9H2K2); assay: as above; format: binding
T8 construct: ankyrin repeat cluster 2 domain, 6xHis-mCerulean (CFP) fusion, E. coli
T8 sequence (Q9H2K2 173-329 limits assumed): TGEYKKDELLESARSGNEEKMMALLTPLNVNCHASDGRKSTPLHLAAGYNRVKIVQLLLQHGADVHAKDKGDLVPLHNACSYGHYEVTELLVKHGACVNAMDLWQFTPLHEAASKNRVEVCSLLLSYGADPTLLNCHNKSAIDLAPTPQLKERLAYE
Excerpt: FRET displacement of YFP-REAGDGEE peptide from CFP-ARC on TNKS2 ARC2

TNKS2 ARC4 [2] = target: T4, TNKS2 ARC4; parameters: DSF thermal shift of TNKS2 ARC4, stabilization over DMSO control; settings: binder
Excerpt: Given the notable stabilization of the pyrrolone-based compounds from the Commercials Diversity collection, we decided to focus on their common scaffold for compound optimization. Pyrrolone is indeed a versatile moiety that is largely employed for the design of compounds with a variety of biological effects.[55] The nine primary hits were acquired from commercial suppliers, they underwent quality control, additional DSF validation and determination of potency through FRET-based IC50 measurements (Table 1). All the tested compounds include a benzodioxane moiety (R[1]), a [compound left out] group with substitutions in the para position (R[2]), and an R[3] group with an aliphatic character and a tertiary amine. […] In addition, all molecules, except for 7, have IC50 values below 100 µM. Among the nine molecules, 1 performed the best in terms of stabilization of TNKS2 ARC4 and potency. […] In the same position, the presence of a hydrophobic methyl group (3, 4), other halogen substituents (5) and alkoxy groups (6–9) is also tolerated, even if not optimal. […] A SAR investigation was conducted with purchased and synthesized analogues of 1 through FRET-based potency measurements and DSF assay with TNKS2 ARC4 (Table 2, Table S2). All the compounds commercially acquired underwent quality control. […] Changes to the length of the aliphatic chain at R[3] greatly impacts both potency and protein stabilization. […] The diethylamino-based substituent at R[3] […] Compounds 25 and 26 further indicate that the presence of tertiary amine at R[3] is not necessary to achieve binding. […] 5 Figure S2. DSF assay results for validation of primary hits identified in the EU-OPENSCREEN Commercials Diversity Library. (A) and (B) show DSF assay validation measurements of TNKS2 ARC4 with primary hits from the Commercial Diversity Library. Compounds are tested at 100 μM. They are named after their EU-OPENSCREEN identity codes and the identities are available for consultation on ECBD. 1,2 (A) and (B) show results from two independent experiments. For each experiment, each compound was tested with a single measurement, while controls (TNKS2 ARC4 with 100 μM optimized peptide, TNKS2 ARC4 with 100 μM DMSO) are studied in at least four replicates and errors are shown. Moreover, stabilization over the control (TNKS2 ARC4 with DMSO) is indicated (ΔTm °C). […] It was not possible to measure the melting curve of TNKS2 ARC4 in presence of EOS21552, EOS54043, EOS54043.

TNKS2 ARC4 [3] = target: T4, TNKS2 ARC4; assay: X-ray co-crystal structure; format: binding; settings: residues 487-649, tag-free, pH 4.2; S enantiomer in TBM pocket, R enantiomer at crystal contacts

SMILES: CCN(CC)CCCN1C(=O)C(O)=C(C(=O)c2ccc3c(c2)OCCO3)C1c1ccc(O)cc1 (stereo not drawn) [compound 1, 1]
- IC50 (TNKS1 ARC2-3): > 1000 µM
- IC50 (TNKS2 ARC1): > 1000 µM
- IC50 (TNKS2 ARC5): > 1000 µM
- IC50 (TNKS2 ARC4 [1]): 16 µM
- IC50 (TNKS1 ARC5): > 1000 µM
- IC50 (TNKS1 ARC4): 18 µM
- IC50 (TNKS1 ARC1): > 1000 µM
- IC50 (TNKS2 ARC2): > 1000 µM

SMILES: CCC(CC)CCCN1C(=O)C(O)=C(C(=O)c2ccc3c(c2)OCCO3)[C@@H]1c1ccc(O)cc1 [S8]
- IC50 (TNKS1 ARC2-3): > 1000 µM
- ΔTm ± SD (°C) (TNKS2 ARC4 [2]): 2.44 ± 0.12 °C
- IC50 (TNKS1 ARC5): > 1000 µM
- X-ray co-crystal structure (TNKS2 ARC4 [3]): we co-crystallized the compound displaying the best potency (S8) with TNKS2 ARC4
- IC50 (TNKS1 ARC4): 9 µM
- IC50 (TNKS1 ARC1): > 1000 µM
- IC50 (TNKS2 ARC2): > 1000 µM

SMILES: Cc1ccc(C2C(C(=O)c3ccc4c(c3)OCCO4)=C(O)C(=O)N2CCCN2CCOCC2)cc1 (stereo not drawn) [compound 4, 4]
- IC50 (TNKS1 ARC2-3): > 1000 µM
- IC50 (TNKS2 ARC1): > 1000 µM
- IC50 (TNKS2 ARC5): > 1000 µM
- ΔTm ± SD (°C) (TNKS2 ARC4 [2]): 2.19 ± 0.31 °C
- IC50 (TNKS2 ARC4 [1]): 77 µM
- IC50 (TNKS1 ARC5): > 1000 µM
- IC50 (TNKS1 ARC4): 121 µM
- IC50 (TNKS1 ARC1): > 1000 µM
- IC50 (TNKS2 ARC2): > 1000 µM

SMILES: COc1ccc(C2C(C(=O)c3ccc4c(c3)OCCO4)=C(O)C(=O)N2CCCN2CCOCC2)cc1 (stereo not drawn) [compound 6, 6]
- IC50 (TNKS1 ARC2-3): > 1000 µM
- IC50 (TNKS2 ARC1): > 1000 µM
- IC50 (TNKS2 ARC5): > 1000 µM
- ΔTm ± SD (°C) (TNKS2 ARC4 [2]): 1.81 ± 0.31 °C
- IC50 (TNKS2 ARC4 [1]): 82 µM
- IC50 (TNKS1 ARC5): > 1000 µM
- IC50 (TNKS1 ARC4): 123 µM
- IC50 (TNKS1 ARC1): > 1000 µM
- IC50 (TNKS2 ARC2): > 1000 µM
